Values of other authors in patent US20070134339A1, “ZONISAMIDE AND NSAID NANOPARTICULATE FORMULATIONS” (Elan Pharma International, Limited, priority 2005, published 2007).
In brackets after ≈: the same amount, converted by molar mass.

How the values were obtained:
[1] = not given; remark: listed apart in the source
[2] = not given; remark: listed apart in the source

solubility in 0.1 N HCl (0.1 N HCl): 500 µg/mL (≈ 2.36 mM)
solubility in water (water): 800 µg/mL (≈ 3.77 mM)
pKa [1]: 10.2
peak plasma concentrations ([2]; 200-400 mg oral dose, normal volunteers): 2 to 5 µg/mL
time at which peak plasma concentrations occur ([2]; 200-400 mg oral dose, normal volunteers, without food): 2 to 6 h
effect of food on bioavailability ([2]; oral, in the presence of food): no effect
time to maximum concentration ([2]; oral, in the presence of food): 4 to 6 h
Compound: NS(=O)(=O)Cc1noc2ccccc12 [Zonisamide, 1,2-benzisoxazole-3-methanesulfonamide]
